For 19 molecules, T/C results are on record in PubChem BioAssay AID180 (DTP/NCI, 2004).

The assay deals with BDF1 mice, Adenocarcinoma 755 s.c., tumor weight T/C. As to the kind of experiment: NCI In Vivo Anticancer Drug Screen. Data for tumor model Adenocarcinoma 755 (subcutaneous) in B6D2F1 (BDF1) mice. To be noted: endpoint: mean tumor weight, higher = larger tumour. A digest of the protocol:
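Values express treated (T) relative to vehicle-dosed control (C) animals, based on survival or tumour size measured after compound treatment of mice bearing a transplanted tumour.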

[1] abbreviates: dose: 25.0 mg/kg/injection, schedule: Q01DX011 (ip), vehicle: saline.
Setting [2] is: dose: 400.0 mg/kg/injection, schedule: Q01DX011 (ip), vehicle: saline.
Where [3] appears, read: dose: 30.0 mg/kg/injection, schedule: Q01DX011 (ip), vehicle: carboxymethylcellulose (CMC).
Where [4] appears, read: dose: 120.0 mg/kg/injection, schedule: Q01DX011 (ip), vehicle: carboxymethylcellulose (CMC).
The mark [5] stands for this setting: dose: 25.0 mg/kg/injection, schedule: Q01DX011 (ip), vehicle: carboxymethylcellulose (CMC).
[6] abbreviates: dose: 12.5 mg/kg/injection, schedule: Q01DX011 (ip), vehicle: methylcellulose (MC).
[7] abbreviates: dose: 50.0 mg/kg/injection, schedule: Q01DX011 (ip), vehicle: carboxymethylcellulose (CMC).

Each structure is given as a SMILES string. Where “and” joins values, the source holds several entries; their conditions need not be identical. Identical values can stand only once.

Broadly, the T/C is the ratio of treated to control.

In the case of `O=C(N/N=C\c1ccc(Br)cc1)c1ccncc1`, the T/C is 52 % of control (dose: 30.0 mg/kg/injection, schedule: Q01DX011 (ip), vehicle: methylcellulose (MC)); 52 % of control (dose: 60.0 mg/kg/injection, schedule: Q01DX011 (ip), vehicle: methylcellulose (MC)); 62 % of control (dose: 120.0 mg/kg/injection, schedule: Q01DX011 (ip), vehicle: methylcellulose (MC)); 37 % of control (dose: 240.0 mg/kg/injection, schedule: Q01DX011 (ip), vehicle: methylcellulose (MC)); 64 % of control (dose: 500.0 mg/kg/injection, schedule: Q01DX011 (ip), vehicle: methylcellulose (MC)).

Turning to `N#CCCn1cnc2c(=S)nc[nH]c21`, the T/C (dose: 14.0 mg/kg/injection, schedule: Q01DX011 (ip), vehicle: other) is 89 % of control.

With `OC(CBr)C(O)C(O)C(O)CBr` (configuration not stated), the T/C by setting is: under setting [1], 48 % of control; (dose: 50.0 mg/kg/injection, schedule: Q01DX011 (ip), vehicle: saline) 64 % of control and 71 % of control; (dose: 100.0 mg/kg/injection, schedule: Q01DX011 (ip), vehicle: saline) 66 % of control and 72 % of control; (dose: 200.0 mg/kg/injection, schedule: Q01DX011 (ip), vehicle: saline) 38 % of control and 50 % of control; under setting [2], 29 % of control.

Turning to `C=CC(COC(C)=O)N1CC1` (configuration not stated), the T/C was 58 % of control and 76 % of control (dose: 3.25 mg/kg/injection, schedule: Q01DX011 (ip), vehicle: saline); 193 % of control (dose: 3.25 mg/kg/injection, schedule: Q01DX011 (oral), vehicle: saline); 228 % of control (dose: 7.5 mg/kg/injection, schedule: Q01DX011 (oral), vehicle: saline); 157 % of control (dose: 15.0 mg/kg/injection, schedule: Q01DX011 (oral), vehicle: saline); 19 % of control (dose: 30.0 mg/kg/injection, schedule: Q01DX011 (oral), vehicle: saline).

Consider `c1nc2c3c(n1)ncn3CCN2`, for which the T/C reads like this: under setting [1], 85 % of control; (dose: 75.0 mg/kg/injection, schedule: Q01DX011 (ip), vehicle: saline) 74 % of control; (dose: 225.0 mg/kg/injection, schedule: Q01DX011 (ip), vehicle: saline) 99 % of control.

Regarding `C[C@]12CCCC[C@@H]1CC[C@@H]1[C@@H]2[C@@](C)(O)C[C@@]2(C)[C@H]1CC[C@]2(C)O`, the T/C (dose: 300.0 mg/kg/injection, schedule: Q01DX011 (sc), vehicle: steriod suspending solution) was 79 % of control.

As to `C[N+](C)(C)c1nc(N)nc2c1ncn2C1OC(CO)C(O)C1O` (configuration not stated), the T/C (dose: 30.0 mg/kg/injection, schedule: Q01DX011 (ip), vehicle: saline) was 114 % of control; the T/C (dose: 60.0 mg/kg/injection, schedule: Q01DX011 (ip), vehicle: saline) is 101 % of control; the T/C (dose: 120.0 mg/kg/injection, schedule: Q01DX011 (ip), vehicle: saline) is 52 % of control; the T/C (dose: 240.0 mg/kg/injection, schedule: Q01DX011 (ip), vehicle: saline) was 24 % of control; the T/C under setting [2] was 3 % of control.

Take `CC1CC2(C)C(=CC1=O)CCC1C3CCC(C)(O)C3(C)CC(O)C12F` (configuration not stated): the T/C (dose: 200.0 mg/kg/injection, schedule: Q01DX011 (sc), vehicle: steriod suspending solution) is 106 % of control and the T/C (dose: 400.0 mg/kg/injection, schedule: Q01DX011 (sc), vehicle: steriod suspending solution) is 92 % of control.

On to `Cn1c(=O)c2[nH]c(N/N=C/c3ccc(Br)cc3)nc2n(C)c1=O`, for which the T/C reads like this: under setting [3], 109 % of control; (dose: 60.0 mg/kg/injection, schedule: Q01DX011 (ip), vehicle: carboxymethylcellulose (CMC)) 106 % of control; under setting [4], 92 % of control and 116 % of control; (dose: 240.0 mg/kg/injection, schedule: Q01DX011 (ip), vehicle: carboxymethylcellulose (CMC)) 104 % of control and 88 % of control; (dose: 480.0 mg/kg/injection, schedule: Q01DX011 (ip), vehicle: carboxymethylcellulose (CMC)) 97 % of control.

For `CCCOP(=S)(N1CC1C)N1CC1(C)C` (configuration not stated), the T/C (dose: 0.5 mg/kg/injection, schedule: Q01DX011 (ip), vehicle: carboxymethylcellulose (CMC)) was 68 % of control; the T/C (dose: 1.0 mg/kg/injection, schedule: Q01DX011 (ip), vehicle: carboxymethylcellulose (CMC)) is 104 % of control; the T/C (dose: 12.0 mg/kg/injection, schedule: Q01DX011 (ip), vehicle: carboxymethylcellulose (CMC)) is 79 % of control; the T/C (dose: 24.0 mg/kg/injection, schedule: Q01DX011 (ip), vehicle: carboxymethylcellulose (CMC)) is 61 % of control.

`O=c1[nH]c2nc(Cl)nc(Cl)c2[nH]1`: the T/C is, setting by setting: under setting [5], 54 % of control; (dose: 75.0 mg/kg/injection, schedule: Q01DX011 (ip), vehicle: carboxymethylcellulose (CMC)) 117 % of control; (dose: 225.0 mg/kg/injection, schedule: Q01DX011 (ip), vehicle: carboxymethylcellulose (CMC)) 92 % of control.

With `CC(=O)[C@@]1(O)[C@H](C)C[C@H]2[C@@H]3C=C(C)C4=Cc5c(cnn5-c5ccccc5)C[C@]4(C)[C@H]3[C@@H](O)C[C@@]21C`, the T/C runs as follows: (dose: 0.01 mg/kg/injection, schedule: Q01DX011 (sc), vehicle: steriod suspending solution) 70 % of control; (dose: 0.03 mg/kg/injection, schedule: Q01DX011 (sc), vehicle: steriod suspending solution) 43 % of control; (dose: 0.05 mg/kg/injection, schedule: Q01DX011 (sc), vehicle: steriod suspending solution) 41 % of control; (dose: 0.2 mg/kg/injection, schedule: Q01DX011 (sc), vehicle: steriod suspending solution) 27 % of control and 44 % of control; (dose: 0.3 mg/kg/injection, schedule: Q01DX011 (sc), vehicle: steriod suspending solution) 14 % of control and 28 % of control; (dose: 0.5 mg/kg/injection, schedule: Q01DX011 (sc), vehicle: steriod suspending solution) 33 % of control. Also, the T/C reads like this: (dose: 30.0 micrograms/kg/injection, schedule: Q01DX011 (ip), vehicle: saline) 115 % of control; (dose: 60.0 micrograms/kg/injection, schedule: Q01DX011 (ip), vehicle: saline) 115 % of control; (dose: 120.0 micrograms/kg/injection, schedule: Q01DX011 (ip), vehicle: saline) 105 % of control.

For the molecule `CS(=O)(=O)OCCC(=O)NCNC(=O)CCOS(C)(=O)=O`, the T/C (dose: 7.0 mg/kg/injection, schedule: Q01DX011 (ip), vehicle: carboxymethylcellulose (CMC)) was 77 % of control; the T/C under setting [6] is 79 % of control; the T/C (dose: 14.0 mg/kg/injection, schedule: Q01DX011 (ip), vehicle: carboxymethylcellulose (CMC)) was 42 % of control; the T/C (dose: 25.0 mg/kg/injection, schedule: Q01DX011 (ip), vehicle: methylcellulose (MC)) is 39 % of control; the T/C (dose: 28.0 mg/kg/injection, schedule: Q01DX011 (ip), vehicle: carboxymethylcellulose (CMC)) was 4 % of control; the T/C (dose: 28.0 mg/kg/injection, schedule: Q01DX011 (ip), vehicle: methylcellulose (MC)) is 5 % of control. The T/C (dose: 50.0 mg/kg/injection, schedule: Q01DX011 (ip), vehicle: methylcellulose (MC)) is 3 % of control.

For the molecule `Nc1nc2c(ccn2Cc2ccccc2)c(=O)[nH]1`, the T/C under setting [3] was 92 % of control and the T/C under setting [4] was 106 % of control.

With `Nc1nc(Cl)cc(Nc2cccc(Cl)c2)n1`, the T/C (dose: 15.0 mg/kg/injection, schedule: Q01DX011 (ip), vehicle: methylcellulose (MC)) is 99 % of control; the T/C (dose: 31.0 mg/kg/injection, schedule: Q01DX011 (ip), vehicle: methylcellulose (MC)) is 104 % of control; the T/C (dose: 62.0 mg/kg/injection, schedule: Q01DX011 (ip), vehicle: methylcellulose (MC)) is 103 % of control; the T/C (dose: 125.0 mg/kg/injection, schedule: Q01DX011 (ip), vehicle: methylcellulose (MC)) is 94 % of control; the T/C (dose: 250.0 mg/kg/injection, schedule: Q01DX011 (ip), vehicle: methylcellulose (MC)) was 68 % of control.

As to `CCCCN(C)N=Nc1ccc(CCC(=O)NN)cc1`, the T/C (dose: 31.0 mg/kg/injection, schedule: Q01DX011 (ip), vehicle: carboxymethylcellulose (CMC)) was 19 % of control.

As for `C=CCn1cnc2c(Cl)ncnc21`, the T/C runs as follows: under setting [5], 10 % of control; under setting [7], 6 % of control.

For the molecule `CC(C)CCn1cnc2c(=S)nc(N)[nH]c21`, the T/C runs as follows: (dose: 1.5 mg/kg/injection, schedule: Q01DX011 (ip), vehicle: methylcellulose (MC)) 48 % of control; (dose: 3.1 mg/kg/injection, schedule: Q01DX011 (ip), vehicle: methylcellulose (MC)) 37 % of control; (dose: 6.2 mg/kg/injection, schedule: Q01DX011 (ip), vehicle: methylcellulose (MC)) 14 % of control; under setting [6], 1 % of control and 9 % of control.

As to `CC(C)COC(=O)C1(N)CCCC1`, the T/C runs as follows: under setting [5], 98 % of control; under setting [7], 33 % of control; (dose: 100.0 mg/kg/injection, schedule: Q01DX011 (ip), vehicle: carboxymethylcellulose (CMC)) 12 % of control.
